The values below are quoted from earlier work in patent US6245797A, “Combination therapy for reducing the risks associated with cardio-and-cerebrovascular disease” (Merck & Co., Inc., priority 1998, dated 2001).

For the series the following is noted: Scandinavian Simvastatin Survival Study, over the course of the 5 year study.

Turning to `CCC(C)(C)C(=O)O[C@H]1C[C@@H](C)C=C2C=C[C@H](C)[C@H](CC[C@@H]3C[C@@H](O)CC(=O)O3)[C@H]21` [simvastatin], the “treated patients who die of their disease” value was 5%.
